Data as given in patent US20150105252A1, “SUBSTITUTED PYRAZOLES AS HERBICIDES” (E I DU PONT DE NEMOURS AND COMPANY, priority 2013, published 2015).

Legend:
rice = test: Test B flood; type: in vivo, Oryza sativa; settings: 250 g ai/ha, visual rating on 0 to 100 scale (0 no effect, 100 complete control), 13 to 15 days
How it was run: (§1)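 Visual ratings (0 = no effect, 100 = complete control) versus untreated controls were taken 13–15 days after treatment of greenhouse plants. Treatment was added to paddy water held at 3 cm depth on 2-leaf-stage seedlings.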

barnyardgrass = test: Test B flood; type: in vivo, Echinochloa crus-galli; settings: 250 g ai/ha, visual rating on 0 to 100 scale (0 no effect, 100 complete control), 13 to 15 days
How it was run: as §1

blackgrass = test: Test C preemergence; type: in vivo, Alopecurus myosuroides; settings: for Blackgrass plant response rating / Plant response rating, Blackgrass: preemergence; for Plant response rating, Blackgrass: 125 g ai/ha, scale 0 to 100, 0 = no effect, 100 = complete control
How it was run: (§2)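 Pre- and postemergence greenhouse screen; vehicle was a non-phytotoxic solvent mix with surfactant. Preemergence: treatment applied right after sowing into loam and sand. Postemergence: treated at 1–4 leaves. Visual rating at 13–15 days, 100 = complete control.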

wheat = test: Test C preemergence; type: in vivo, Triticum aestivum; settings: for Wheat plant response rating / Plant response rating, Wheat: preemergence; for Plant response rating, Wheat: 125 g ai/ha, scale 0 to 100, 0 = no effect, 100 = complete control
How it was run: as §2

lambsquarters = test: Test C preemergence; type: in vivo, Chenopodium album; settings: for Lambsquarters plant response rating / Plant response rating, Lambsquarters: preemergence; for Plant response rating, Lambsquarters: 125 g ai/ha, scale 0 to 100, 0 = no effect, 100 = complete control
How it was run: as §2

nutsedge, yellow [1] = test: Test C preemergence; type: in vivo, Cyperus esculentus; settings: for Nutsedge, Yellow plant response rating / Plant response rating, Nutsedge, Yellow: preemergence; for Plant response rating, Nutsedge, Yellow: 125 g ai/ha, scale 0 to 100, 0 = no effect, 100 = complete control
How it was run: as §2

ryegrass, Italian = test: Test C postemergence; type: in vivo, Lolium multiflorum; settings: for Plant response rating (scale of 0 to 100 where 0 is no effect and 100 is complete control), Ryegrass, Italian: Postemergence, 31 g ai/ha, visually evaluated after 13 to 15 days; for Ryegrass, Italian plant response rating / Plant response rating, Ryegrass, Italian: postemergence; for Ryegrass, Italian plant response rating: 62 g ai/ha, scale 0 to 100
How it was run: as §2

foxtail, giant = test: Test C postemergence; type: in vivo, Setaria faberii; settings: for Plant response rating (scale of 0 to 100 where 0 is no effect and 100 is complete control), Foxtail, Giant: Postemergence, 31 g ai/ha, visually evaluated after 13 to 15 days; for Foxtail, Giant plant response rating / Plant response rating, Foxtail, Giant: postemergence; for Foxtail, Giant plant response rating: 62 g ai/ha, scale 0 to 100
How it was run: as §2

johnsongrass = test: Test C postemergence; type: in vivo, Sorghum halepense; settings: for Plant response rating (scale of 0 to 100 where 0 is no effect and 100 is complete control), Johnsongrass: Postemergence, 31 g ai/ha, visually evaluated after 13 to 15 days; for Johnsongrass plant response rating / Plant response rating, Johnsongrass: postemergence; for Johnsongrass plant response rating: 62 g ai/ha, scale 0 to 100
How it was run: as §2

morningglory = test: Test C postemergence; type: in vivo, Ipomoea coccinea; settings: for Plant response rating (scale of 0 to 100 where 0 is no effect and 100 is complete control), Morningglory: Postemergence, 31 g ai/ha, visually evaluated after 13 to 15 days; for Morningglory plant response rating / Plant response rating, Morningglory: postemergence; for Morningglory plant response rating: 62 g ai/ha, scale 0 to 100
How it was run: as §2

nutsedge, yellow [2] = test: Test C postemergence; type: in vivo, Cyperus esculentus; settings: for Plant response rating (scale of 0 to 100 where 0 is no effect and 100 is complete control), Nutsedge, Yellow: Postemergence, 31 g ai/ha, visually evaluated after 13 to 15 days; for Nutsedge, Yellow plant response rating / Plant response rating, Nutsedge, Yellow: postemergence; for Nutsedge, Yellow plant response rating: 62 g ai/ha, scale 0 to 100
How it was run: as §2

pigweed = test: Test C postemergence; type: in vivo, Amaranthus retroflexus; settings: for Plant response rating (scale of 0 to 100 where 0 is no effect and 100 is complete control), Pigweed: Postemergence, 31 g ai/ha, visually evaluated after 13 to 15 days; for Pigweed plant response rating / Plant response rating, Pigweed: postemergence; for Pigweed plant response rating: 62 g ai/ha, scale 0 to 100
How it was run: as §2

oat, wild = test: Test C postemergence; type: in vivo, Avena fatua; settings: for Plant response rating (scale of 0 to 100 where 0 is no effect and 100 is complete control), Oat, Wild: Postemergence, 31 g ai/ha, visually evaluated after 13 to 15 days; for Oat, Wild plant response rating / Plant response rating, Oat, Wild: postemergence; for Oat, Wild plant response rating: 62 g ai/ha, scale 0 to 100
How it was run: as §2

[3] = 31 g ai/ha, visual rating, scale 0 to 100 (0 no effect, 100 complete control), 13 to 15 days
[4] = 62 g ai/ha, scale 0 to 100 (0 no effect, 100 complete control), 13 to 15 days
[5] = 250 g ai/ha, scale 0 to 100 (0 no effect, 100 complete control)
[6] = 125 g ai/ha, scale 0 to 100, 0 no effect, 100 complete control
[7] = 250 g ai/ha, scale 0 to 100, 0 is no effect, 100 is complete control

Structure (SMILES): CCOc1cc(C(=O)NCC(F)(F)F)nn1Cc1ccnc(OC(F)F)c1 [Compound 128]
- Plant response rating, Rice (rice): 30
- Plant response rating, Barnyardgrass (barnyardgrass): 70
- Plant response rating (scale of 0 to 100), Blackgrass (blackgrass; Preemergence, 250 g ai/ha): 90
- Blackgrass plant response rating (blackgrass; [3]): 50
- Blackgrass plant response rating (blackgrass; [4]): 90
- Plant response rating, Blackgrass (blackgrass; 13 to 15 days): 90
- Plant response rating (scale of 0 to 100), Wheat (wheat; Preemergence, 250 g ai/ha): 85
- Wheat plant response rating (wheat; [3]): 20
- Wheat plant response rating (wheat; [4]): 30
- Plant response rating, Wheat (wheat; 13 to 15 days): 70
- Plant response rating (scale of 0 to 100), Lambsquarters (lambsquarters; Preemergence, 250 g ai/ha): 98
- Lambsquarters plant response rating (lambsquarters; [3]): 98
- Lambsquarters plant response rating (lambsquarters; [4]): 100
- Plant response rating, Lambsquarters (lambsquarters; 13 to 15 days): 98
- Plant response rating (scale of 0 to 100), Nutsedge, Yellow (nutsedge, yellow [1]; Preemergence, 250 g ai/ha): 90
- Nutsedge, Yellow plant response rating (nutsedge, yellow [1]; [3]): 45
- Nutsedge, Yellow plant response rating (nutsedge, yellow [1]; [4]): 75
- Plant response rating, Nutsedge, Yellow (nutsedge, yellow [1]; 13 to 15 days): 80
- Plant response rating (scale of 0 to 100 where 0 is no effect and 100 is complete control), Ryegrass, Italian (ryegrass, Italian): 5
- Ryegrass, Italian plant response rating (ryegrass, Italian): 10
- Plant response rating, Ryegrass, Italian (ryegrass, Italian; [5]): 30
- Plant response rating, Ryegrass, Italian (ryegrass, Italian; [6]): 15
- Plant response rating (scale of 0 to 100 where 0 is no effect and 100 is complete control), Foxtail, Giant (foxtail, giant): 5
- Foxtail, Giant plant response rating (foxtail, giant): 10
- Plant response rating, Foxtail, Giant (foxtail, giant; [5]): 85
- Plant response rating, Foxtail, Giant (foxtail, giant; [6]): 25
- Plant response rating (scale of 0 to 100 where 0 is no effect and 100 is complete control), Johnsongrass (johnsongrass): 5
- Johnsongrass plant response rating (johnsongrass): 5
- Plant response rating, Johnsongrass (johnsongrass; [5]): 10
- Plant response rating, Johnsongrass (johnsongrass; [6]): 5
- Plant response rating (scale of 0 to 100 where 0 is no effect and 100 is complete control), Morningglory (morningglory): 75
- Morningglory plant response rating (morningglory): 65
- Plant response rating, Morningglory (morningglory; [5]): 80
- Plant response rating, Morningglory (morningglory; [6]): 45
- Plant response rating (scale of 0 to 100 where 0 is no effect and 100 is complete control), Nutsedge, Yellow (nutsedge, yellow [2]): 5
- Nutsedge, Yellow plant response rating (nutsedge, yellow [2]): 5
- Plant response rating, Nutsedge, Yellow (nutsedge, yellow [2]; [5]): 25
- Plant response rating, Nutsedge, Yellow (nutsedge, yellow [2]; [6]): 10
- Plant response rating (scale of 0 to 100 where 0 is no effect and 100 is complete control), Pigweed (pigweed): 65
- Pigweed plant response rating (pigweed): 70
- Plant response rating, Pigweed (pigweed; [5]): 90
- Plant response rating, Pigweed (pigweed; [6]): 65
- Plant response rating (scale of 0 to 100 where 0 is no effect and 100 is complete control), Oat, Wild (oat, wild): 5
- Oat, Wild plant response rating (oat, wild): 10
- Plant response rating, Oat, Wild (oat, wild; [5]): 20
- Plant response rating, Oat, Wild (oat, wild; [6]): 25

Structure (SMILES): CCCNC(=O)c1cc(OCC)n(Cc2ccnc(OC(F)F)c2)n1 [Compound 136]
- Plant response rating, Rice (rice): 35
- Plant response rating, Barnyardgrass (barnyardgrass): 50
- Blackgrass plant response rating (blackgrass; [3]): 85
- Blackgrass plant response rating (blackgrass; [4]): 90
- Plant response rating, Blackgrass (blackgrass; 13 to 15 days): 90
- Blackgrass plant response rating (blackgrass; [7]): 90
- Wheat plant response rating (wheat; [3]): 10
- Wheat plant response rating (wheat; [4]): 65
- Plant response rating, Wheat (wheat; 13 to 15 days): 95
- Wheat plant response rating (wheat; [7]): 95
- Lambsquarters plant response rating (lambsquarters; [3]): 98
- Lambsquarters plant response rating (lambsquarters; [4]): 98
- Plant response rating, Lambsquarters (lambsquarters; 13 to 15 days): 98
- Lambsquarters plant response rating (lambsquarters; [7]): 100
- Nutsedge, Yellow plant response rating (nutsedge, yellow [1]; [3]): 30
- Nutsedge, Yellow plant response rating (nutsedge, yellow [1]; [4]): 35
- Plant response rating, Nutsedge, Yellow (nutsedge, yellow [1]; 13 to 15 days): 50
- Nutsedge, Yellow plant response rating (nutsedge, yellow [1]; [7]): 85
- Plant response rating (scale of 0 to 100 where 0 is no effect and 100 is complete control), Ryegrass, Italian (ryegrass, Italian): 5
- Ryegrass, Italian plant response rating (ryegrass, Italian): 5
- Plant response rating, Ryegrass, Italian (ryegrass, Italian; [5]): 30
- Plant response rating, Ryegrass, Italian (ryegrass, Italian; [6]): 5
- Plant response rating (scale of 0 to 100 where 0 is no effect and 100 is complete control), Foxtail, Giant (foxtail, giant): 30
- Foxtail, Giant plant response rating (foxtail, giant): 30
- Plant response rating, Foxtail, Giant (foxtail, giant; [5]): 70
- Plant response rating, Foxtail, Giant (foxtail, giant; [6]): 40
- Plant response rating (scale of 0 to 100 where 0 is no effect and 100 is complete control), Johnsongrass (johnsongrass): 5
- Johnsongrass plant response rating (johnsongrass): 5
- Plant response rating, Johnsongrass (johnsongrass; [5]): 10
- Plant response rating, Johnsongrass (johnsongrass; [6]): 5
- Plant response rating (scale of 0 to 100 where 0 is no effect and 100 is complete control), Morningglory (morningglory): 90
- Morningglory plant response rating (morningglory): 98
- Plant response rating, Morningglory (morningglory; [5]): 100
- Plant response rating, Morningglory (morningglory; [6]): 95
- Plant response rating (scale of 0 to 100 where 0 is no effect and 100 is complete control), Nutsedge, Yellow (nutsedge, yellow [2]): 5
- Nutsedge, Yellow plant response rating (nutsedge, yellow [2]): 5
- Plant response rating, Nutsedge, Yellow (nutsedge, yellow [2]; [5]): 5
- Plant response rating, Nutsedge, Yellow (nutsedge, yellow [2]; [6]): 5
- Plant response rating (scale of 0 to 100 where 0 is no effect and 100 is complete control), Pigweed (pigweed): 40
- Pigweed plant response rating (pigweed): 65
- Plant response rating, Pigweed (pigweed; [5]): 80
- Plant response rating, Pigweed (pigweed; [6]): 70
- Plant response rating (scale of 0 to 100 where 0 is no effect and 100 is complete control), Oat, Wild (oat, wild): 5
- Oat, Wild plant response rating (oat, wild): 5
- Plant response rating, Oat, Wild (oat, wild; [5]): 45
- Plant response rating, Oat, Wild (oat, wild; [6]): 10
